Test results reported in ChEMBL document CHEMBL1144793, “Synthesis and characterization of 1,3-dihydro-benzo[b][1,4]diazepin-2-one derivatives: Part 3. New potent non-competitive metabotropic glutamate receptor 2/3 antagonists” (Bioorg Med Chem Lett, 2008).
The source made the active and inactive calls. The rule behind the calls is not given here.

How the values were obtained:
[1] = biological target: T1, Metabotropic glutamate receptor 2 (Rattus norvegicus, UniProt P31421); test: Displacement of [3H]LY354740 from rat mGluR2
T1 sequence (P31421 whole entry): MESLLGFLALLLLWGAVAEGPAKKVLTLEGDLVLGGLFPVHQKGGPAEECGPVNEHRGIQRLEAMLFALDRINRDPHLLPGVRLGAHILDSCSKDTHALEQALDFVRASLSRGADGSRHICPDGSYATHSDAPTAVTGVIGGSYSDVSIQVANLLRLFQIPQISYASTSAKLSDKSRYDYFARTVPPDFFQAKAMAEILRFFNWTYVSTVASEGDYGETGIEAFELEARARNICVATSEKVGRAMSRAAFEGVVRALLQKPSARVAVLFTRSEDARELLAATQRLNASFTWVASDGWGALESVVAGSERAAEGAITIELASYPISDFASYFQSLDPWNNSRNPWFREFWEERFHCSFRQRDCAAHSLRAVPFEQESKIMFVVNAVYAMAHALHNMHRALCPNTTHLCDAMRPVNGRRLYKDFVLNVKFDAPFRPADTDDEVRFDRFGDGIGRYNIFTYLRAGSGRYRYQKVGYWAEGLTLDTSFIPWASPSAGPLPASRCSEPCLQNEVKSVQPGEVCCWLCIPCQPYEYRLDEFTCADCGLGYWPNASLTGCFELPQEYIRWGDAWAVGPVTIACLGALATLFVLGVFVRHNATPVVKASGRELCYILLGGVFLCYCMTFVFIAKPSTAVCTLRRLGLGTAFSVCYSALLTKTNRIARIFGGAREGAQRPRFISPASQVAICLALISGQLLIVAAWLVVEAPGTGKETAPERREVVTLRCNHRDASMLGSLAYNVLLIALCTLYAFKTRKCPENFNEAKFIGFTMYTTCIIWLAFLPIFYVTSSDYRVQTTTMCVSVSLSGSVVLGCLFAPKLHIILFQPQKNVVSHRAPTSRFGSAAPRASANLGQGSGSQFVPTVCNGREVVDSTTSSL

[2] = biological target: T1, Metabotropic glutamate receptor 2; test: Antagonist activity at rat mGluR2 assessed as blockade of (1S,3R)-ACPD-induced inhibition of forskolin-stimulated cAMP production; type: functional
[3] = biological target: T1, Metabotropic glutamate receptor 2; test: Antagonist activity at rat mGluR2 expressed in CHO cells assessed as inhibition of glutamta-induced GIRK current; type: functional, cell-based
[4] = biological target: Metabotropic glutamate receptor 3 (Rattus norvegicus, UniProt P31422); test: Antagonist activity at rat mGluR3 expressed in CHO cells assessed as inhibition of glutamate-induced GIRK current; type: functional, cell-based
Sequence of Metabotropic glutamate receptor 3 (P31422 whole entry): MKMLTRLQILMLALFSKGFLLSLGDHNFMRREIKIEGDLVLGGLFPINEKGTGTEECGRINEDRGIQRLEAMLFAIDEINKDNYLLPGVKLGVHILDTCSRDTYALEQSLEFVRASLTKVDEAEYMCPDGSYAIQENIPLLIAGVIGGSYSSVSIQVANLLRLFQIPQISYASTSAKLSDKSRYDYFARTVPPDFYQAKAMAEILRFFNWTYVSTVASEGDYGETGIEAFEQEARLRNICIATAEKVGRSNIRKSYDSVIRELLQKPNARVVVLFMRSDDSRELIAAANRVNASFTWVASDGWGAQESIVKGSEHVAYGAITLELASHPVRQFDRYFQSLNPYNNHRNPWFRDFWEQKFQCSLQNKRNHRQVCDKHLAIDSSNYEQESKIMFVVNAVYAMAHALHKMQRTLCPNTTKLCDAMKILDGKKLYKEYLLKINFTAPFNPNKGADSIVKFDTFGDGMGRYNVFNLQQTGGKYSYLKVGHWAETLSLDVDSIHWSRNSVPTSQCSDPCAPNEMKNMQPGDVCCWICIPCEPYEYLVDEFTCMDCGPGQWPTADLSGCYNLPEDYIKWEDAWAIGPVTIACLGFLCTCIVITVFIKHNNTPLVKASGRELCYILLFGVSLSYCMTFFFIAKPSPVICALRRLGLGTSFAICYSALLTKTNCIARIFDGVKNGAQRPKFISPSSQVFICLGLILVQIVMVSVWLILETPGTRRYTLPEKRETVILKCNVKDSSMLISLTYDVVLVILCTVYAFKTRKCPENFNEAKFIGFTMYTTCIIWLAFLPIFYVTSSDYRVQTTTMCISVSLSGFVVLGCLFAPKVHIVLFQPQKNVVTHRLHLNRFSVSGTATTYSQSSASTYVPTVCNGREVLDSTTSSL

[5] = Plasma concentration in rat at 10 mg/kg, po after 1.5 hrs; type: ADME, organism-based; set-up: dose 10 mg/kg, route oral
[6] = Drug level in rat brain at 10 mg/kg, po after 1.5 hrs; type: ADME, organism-based; set-up: dose 10 mg/kg, route oral; details: read-out: Drug uptake
[7] = Ratio of drug level in brain to plasma at 10 mg/kg, po after 1.5 hrs; type: ADME, organism-based; set-up: dose 10 mg/kg, route oral; details: rat
Mus musculus = test: Spontaneous locomotor activity in po dosed C57BL/6J mouse assessed as reversal of LY-354740-induced hypoactivity; type: functional
[8] = Clearance in rat microsomes; type: ADME, Liver, Microsome
[9] = Binding affinity to ionotropic glutamate receptor
[10] = Binding affinity to GABAA receptor
[11] = Ratio of drug level in cerebrospinal fluid to plasma at 10 mg/kg, po after 1.5 hrs; type: ADME, organism-based, CSF/Plasma; set-up: dose 10 mg/kg, route oral; details: rat
Cytochrome P450 3A4 = Cytochrome P450 3A4 (Homo sapiens, UniProt P08684); test: Inhibition of CYP3A4; type: ADME
Sequence of Cytochrome P450 3A4 (P08684 whole entry): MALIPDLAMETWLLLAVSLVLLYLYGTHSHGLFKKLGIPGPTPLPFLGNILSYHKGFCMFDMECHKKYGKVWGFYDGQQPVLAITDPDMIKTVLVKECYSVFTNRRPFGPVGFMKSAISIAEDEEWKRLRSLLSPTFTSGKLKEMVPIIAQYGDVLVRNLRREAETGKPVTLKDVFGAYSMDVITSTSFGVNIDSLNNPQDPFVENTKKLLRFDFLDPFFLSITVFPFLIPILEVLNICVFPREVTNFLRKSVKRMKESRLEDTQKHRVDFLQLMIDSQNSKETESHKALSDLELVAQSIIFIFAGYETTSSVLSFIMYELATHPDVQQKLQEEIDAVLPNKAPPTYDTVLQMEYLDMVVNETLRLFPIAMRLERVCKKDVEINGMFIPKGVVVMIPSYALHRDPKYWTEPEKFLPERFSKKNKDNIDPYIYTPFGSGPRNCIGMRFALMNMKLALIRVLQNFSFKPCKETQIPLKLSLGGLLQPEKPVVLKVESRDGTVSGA

| SMILES | IC50 [1] [nM] | IC50 [2] [nM] | also measured |
| --- | --- | --- | --- |
| O=C1CC(c2cccc(-n3ccnc3)c2)=Nc2ccc(-c3cccc(F)c3)cc2N1 | 25 |  |  |
| O=C1CC(c2cccc(-n3ccnn3)c2)=Nc2ccc(-c3cc(F)ccc3F)cc2N1 | 17 | 18 |  |
| CN(C)c1cc2c(cc1C(F)(F)F)NC(=O)CC(c1cccc(-n3ccnc3)c1)=N2 | 9 | 52 |  |
| O=C1CC(c2cccc(-n3ccnc3)c2)=Nc2ccc(C3CC3)cc2N1 | 210 |  |  |
| O=C1CC(c2cccc(-n3ccnc3)c2)=Nc2ccc(-c3ccccc3F)cc2N1 | 12 | 27 | IC50 [3]: 11 nM; IC50 [4]: 33 nM; concentration at 1.5 h [5]: 2660 ng/mL; concentration at 1.5 h [6]: 1340 ng/mL; Kp at 1.5 h [7]: 0.5; ED50 (Mus musculus): 12.5 mg/kg |
| CC(C)c1ccc2c(c1)NC(=O)CC(c1cccc(-n3ccnn3)c1)=N2 | 466 |  |  |
| Cc1cc2c(cc1C(F)(F)F)NC(=O)CC(c1cccc(-n3ccnn3)c1)=N2 | 9 | 39 |  |
| O=C1CC(c2cccc(-n3ccnc3)c2)=Nc2ccc(C(F)(F)F)cc2N1 | 43 |  |  |
| O=C1CC(c2cccc(-n3ccnn3)c2)=Nc2ccc(Cl)cc2N1 | 60 |  |  |
| O=C1CC(c2cccc(-n3ccnc3)c2)=Nc2ccc(-c3ccccc3)cc2N1 | 39 | 47 |  |
| COc1cc2c(cc1C(F)(F)F)NC(=O)CC(c1cccc(-n3ccnn3)c1)=N2 | 29 | 74 |  |
| O=C1CC(c2cccc(-n3ccnn3)c2)=Nc2ccc(-c3ccc(F)cc3)cc2N1 | 31 | 36 |  |
| CC(C)CNc1cc2c(cc1C(F)(F)F)NC(=O)CC(c1cccc(-n3ccnc3)c1)=N2 | 19 | 73 |  |
| Cc1cc2c(cc1C(F)(F)F)NC(=O)CC(c1cccc(-n3ccnc3)c1)=N2 | 12 | 19 |  |
| O=C1CC(c2cccc(-n3ccnn3)c2)=Nc2ccc(C(F)(F)F)cc2N1 | 92 |  |  |
| O=C1CC(c2cccc(-n3ccnc3)c2)=Nc2cc(O)c(-c3ccccc3F)cc2N1 | 22 |  | IC50 [3]: 35 nM; IC50 [4]: 122 nM; CLint scaled [8]: 100 mL/min/kg |

| SMILES | IC50 [1] [nM] | IC50 [2] [nM] | also measured |
| --- | --- | --- | --- |
| O=C1CC(c2cccc(-n3ccnn3)c2)=Nc2ccc(Br)cc2N1 | 130 |  |  |
| CC(C)CN(C)c1cc2c(cc1C(F)(F)F)NC(=O)CC(c1cccc(-n3ccnn3)c1)=N2 | 11 | 14 |  |
| O=C1CC(c2cccc(-n3ccnn3)c2)=Nc2ccc(OCC(F)(F)F)cc2N1 | 70 |  |  |
| O=C1CC(c2cccc(-n3ccnc3)c2)=Nc2ccc(-c3ccc(F)cc3)cc2N1 | 17 | 24 | IC50 [3]: 299 nM; IC50 [4]: 17 nM |
| O=C1CC(c2cccc(-n3ccnn3)c2)=Nc2ccc(-c3ccccc3F)cc2N1 | 16 | 37 | IC50 [3]: 22 nM; IC50 [4]: 42 nM; Activity [9]: inactive; Activity [10]: inactive; concentration at 1.5 h [5]: 1420 ng/mL; concentration at 1.5 h [6]: 1060 ng/mL; Kp at 1.5 h [7]: 0.9; Kp at 1.5 h [11]: 0.5; ED50 (Mus musculus): 3.3 mg/kg; IC50 (Cytochrome P450 3A4): 4300 nM |
| CC(C)CNc1cc2c(cc1C(F)(F)F)NC(=O)CC(c1cccc(-n3ccnn3)c1)=N2 | 42 | 268 |  |
| O=C1CC(c2cccc(-n3ccnc3)c2)=Nc2cc(O)c(C#Cc3ccc(F)cc3)cc2N1 |  |  | IC50 [3]: 24 nM |
| O=C1CC(c2cccc(-n3ccnn3)c2)=Nc2ccc(C(F)F)cc2N1 | 608 |  |  |
| CCc1cc2c(cc1C(F)(F)F)NC(=O)CC(c1cccc(-n3ccnc3)c1)=N2 | 4 | 10 |  |
| O=C1CC(c2cccc(-n3ccnc3)c2)=Nc2ccc(Br)cc2N1 | 72 |  |  |
| CN(C)c1cc2c(cc1C(F)(F)F)NC(=O)CC(c1cccc(-n3ccnn3)c1)=N2 | 38 | 184 |  |
| O=C1CC(c2cccc(-n3ccnn3)c2)=Nc2cc(Cl)c(C(F)(F)F)cc2N1 | 27 | 116 |  |
| O=C1CC(c2cccc(-n3ccnc3)c2)=Nc2ccc(-c3cc(F)ccc3F)cc2N1 | 7 | 17 |  |
| CCOc1cc2c(cc1C(F)(F)F)NC(=O)CC(c1cccc(-n3ccnn3)c1)=N2 | 7 | 34 |  |
| O=C1CC(c2cccc(-n3ccnc3)c2)=Nc2cc(Cl)c(C(F)(F)F)cc2N1 | 17 | 15 |  |
